The target of one data set is p38 MAP kinase (Homo sapiens, UniProt Q16539). Put plainly: Inhibition of p38 MAP kinase, IC50 relative to SB-203580. Type of data set: biochemical. To be noted: relative activity = ratio IC50 (SB-203580)/IC50 (test compound); the higher the value, the more active.
A further data set concerns TNF-α. The data set is described as follows: Inhibition of TNF-α release, IC50 relative to SB-203580. Type of data set: cell-based. To be noted: relative activity = ratio IC50 (SB-203580)/IC50 (test compound); the higher the value, the more active. The source says:
The action spectrum of the compounds as inhibitors of the release of TNF-α and IL-1β was investigated with the aid of the test systems as described by Donat C. and Laufer S. in Arch. Pharm. Pharm. Med. Chem. 333, Suppl. 1, 1-40, 2000. The IC50 values obtained were set in relation to the values for the compound SB-203580 of the formula
The numerical values given in the following table are therefore the relative activity, calculated from the ratio of IC50 (SB-203580)/IC50 (test compound). […] The compounds in which R1 represents H represent the prior art according to WO2006/120010.

Each structure is given as a SMILES string. Where only a bound is given, the exact number is not on record here.

Sequence of p38 MAP kinase (Q16539 whole entry): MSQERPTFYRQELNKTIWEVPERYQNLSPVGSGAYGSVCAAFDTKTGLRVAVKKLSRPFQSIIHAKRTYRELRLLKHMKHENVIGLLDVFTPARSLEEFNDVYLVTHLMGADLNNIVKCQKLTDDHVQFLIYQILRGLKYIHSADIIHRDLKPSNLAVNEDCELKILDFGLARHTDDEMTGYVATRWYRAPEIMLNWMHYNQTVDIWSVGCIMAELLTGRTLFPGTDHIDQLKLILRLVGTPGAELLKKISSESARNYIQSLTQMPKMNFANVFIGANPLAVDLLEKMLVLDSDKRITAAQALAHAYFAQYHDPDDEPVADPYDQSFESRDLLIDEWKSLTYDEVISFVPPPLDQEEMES

As for `O=C1c2ccc(Nc3ccc(F)cc3F)cc2CCc2ccc(OC3CCOCC3)cc21` [2-(2,4-Difluoroanilino)-7-(2-tetrahydropyran-4-yl-oxy)-10,11-dihydrodibenzo[a,d]-cyclohepten-5-one], at p38 MAP kinase, the “p38 MAP kinase” value was found to be 0.74. Besides, in the data set with TNF-α, the “Inhibition of TNF-α” value came out at 1.98.
For `O=C1c2ccc(Nc3ccc(F)cc3F)cc2CCc2ccc(OCCCO)cc21` [2-(2,4-Difluoroanilino)-7-(3-hydroxy-propoxy)-10,11-dihydrodibenzo[a,d]-cyclohepten-5-one], in that order: 4.85 and greater than 5.
On the same counts, the results for `O=C1c2ccc(Nc3ccc(F)cc3F)cc2CCc2ccc(O)cc21` [2-(2,4-Difluoroanilino)-7-hydroxy-10,11-dihydrodibenzo[a,d]-cyclohepten-5-one] are 2.03 and 1.80.
Turning to `COc1ccc2c(c1)C(=O)c1ccc(Nc3ccc(F)cc3F)cc1CC2` [2-(2,4-Difluoroanilino)-7-methoxydibenzosuberone], the “p38 MAP kinase” value at p38 MAP kinase is 1.59. For the same compound, the “Inhibition of TNF-α” value with TNF-α stood at 0.70.
Turning to `O=C1c2ccc(Nc3ccc(F)cc3F)cc2CCc2cc(OCCO)ccc21` [2-(2,4-Difluorophenylamino)-8-(2-hydroxyethoxy)-10,11-dihydrodibenzo[a,d]-cyclohepten-5-one], at p38 MAP kinase, the “p38 MAP kinase” value turned out to be 2.60.
Same read-out and setting: the figure for `O=C1c2ccc(Nc3ccc(F)cc3F)cc2CCc2cc(OCCN3CCOCC3)ccc21` [2-(2,4-Difluorophenylamino)-8-(2-morpholin-4-yl-ethoxy)-10,11-dihydrodibenzo[a,d]cyclohepten-5-one] is 2.53; for `COc1ccc2c(c1)CCc1cc(Nc3ccc(F)cc3F)ccc1C2=O` [2-(2,4-Difluorophenylamino)-8-methoxy-10,11-dihydrodibenzo[a,d]cyclo-hepten-5-one] it is 2.60.
Regarding `COc1ccc2c(c1)C(=O)c1ccc(Nc3ccc(F)cc3N)cc1CC2` [2-(2-Amino-4-fluoroanilino)-7-methoxydibenzosuberone], the “p38 MAP kinase” value at p38 MAP kinase was 0.92. The “Inhibition of TNF-α” value in the data set on TNF-α is recorded as 0.73.
Consider `Nc1ccccc1Nc1ccc2c(c1)CCc1ccc(OC[C@@H](O)CO)cc1C2=O` [2-(2-Aminoanilino)-7-[2S-,3-dihydroxypropoxy]-10,11-dihydrodibenzo[a,d]-cyclohepten-5-one], for which the “p38 MAP kinase” value on p38 MAP kinase worked out at 1.54. In the data set on TNF-α, the “Inhibition of TNF-α” value is greater than 5.
On the same counts, the results for `COc1ccc2c(c1)C(=O)c1ccc(Nc3ccccc3N)cc1CC2` [2-(2-Aminoanilino)-7-methoxydibenzosuberone] are 1.00 and 0.91.
Turning to `COc1ccc2c(c1)C(=O)c1ccc(Nc3ccccc3OC)cc1CC2` [2-(2-Methoxyanilino)-7-methoxydibenzosuberone], the “p38 MAP kinase” value at p38 MAP kinase stood at 0.11. Besides, in the data set with TNF-α, the “Inhibition of TNF-α” value stood at 0.18.
Turning to `CC1(C)OC[C@H](COc2ccc3c(c2)C(=O)c2ccc(Nc4ccccc4N)cc2CC3)O1` [2-(Aminoanilino)-7-(S-1,2-isopropylideneglycer-3-yl)-10,11-dihydrodibenzo[a,d]-cyclohepten-5-one], the “p38 MAP kinase” value on p38 MAP kinase amounted to 1.31. In addition, the “Inhibition of TNF-α” value with TNF-α is greater than 5.
In the case of `Nc1ccc2c(c1)COc1cc(Nc3ccc(F)cc3N)ccc1C2=O` [3-(2-Amino-4-fluorophenylamino)-8-amino-6H-dibenzo[b,e]oxepin-11-one], the melting point – broadly, the temperature of the solid-liquid transition – was found to be 194.5 °C. For the same compound, on p38 MAP kinase, the “p38 MAP kinase” value is 1.15. The “Inhibition of TNF-α” value in the data set with TNF-α came out at 0.24.
On to `Nc1ccc2c(c1)COc1cc(Nc3ccccc3N)ccc1C2=O` [3-(2-Aminophenylamino)-8-amino-6H-dibenzo[b,e]oxepin-11-one], for which the melting point came out at 203.9 °C. Moreover, the “p38 MAP kinase” value on p38 MAP kinase was determined as 0.93.
As for `O=C1c2ccc(Nc3ccc(F)cc3F)cc2CCc2c(OCCN3CCOCC3)cccc21` [8-(2,4-Difluorophenylamino)-1-(2-morpholin-4-yl-ethoxy)-10,11-dihydrodibenzo[a,d]cyclo-hepten-5-one], the “p38 MAP kinase” value at p38 MAP kinase was found to be 1.26.
Regarding `O=C1c2ccc(Nc3ccc(F)cc3F)cc2CCc2c(O)cccc21` [8-(2,4-Difluorophenylamino)-1-hydroxy-10,11-dihydrodibenzo[a,d]cyclohepten-5-one], on p38 MAP kinase, the “p38 MAP kinase” value worked out at 2.26. In addition, in the data set on TNF-α, the “Inhibition of TNF-α” value was 0.06.
Regarding `COc1ccccc1Nc1ccc2c(c1)OCc1cc(N)ccc1C2=O` [8-Amino-3-(2-methoxyphenylamino)-6H-dibenzo[b,e]oxepin-11-one], the melting point turned out to be 68.4 °C. The “p38 MAP kinase” value on p38 MAP kinase is 0.14. In the data set with TNF-α, the “Inhibition of TNF-α” value is 0.04.
Take `O=C1c2ccc(Nc3ccc(F)cc3F)cc2CCc2c(OC[C@H](O)CO)cccc21` [(R)-8-(2,4-Difluorophenylamino)-1-(2,3-dihydroxypropoxy)-10,11-dihydrodibenzo-[a,d]cyclohepten-5-one]: on p38 MAP kinase, the “p38 MAP kinase” value was 1.76.
Turning to `Nc1ccc2c(c1)COc1cc(Nc3ccc(F)cc3F)ccc1C2=O` [Example 82, 3-(2,4-Difluorophenylamino)-8-amino-6H-dibenzo[b,e]oxepin-11-one], the melting point is 184 to 193 °C.
Same read-out and setting: for `Nc1ccc2c(c1)COc1cc(Nc3ccc(C(F)(F)F)cc3N)ccc1C2=O` [Example 92, 8-Amino-3-(2-amino-4-trifluoromethylphenylamino)-6H-dibenzo[b,e]oxepin-11-one] the value was 93.9 °C; for `O=C1c2ccc(-n3cnnn3)cc2COc2cc(Nc3ccc(F)cc3F)ccc21` [Example 95, 3-(2,4-Difluorophenylamino)-8-tetrazol-1-yl-6H-dibenzo[b,e]oxepin-11-one], 59 °C.
On to `O=C1c2ccc(NC(=O)N3CCOCC3)cc2COc2cc(Nc3ccc(F)cc3F)ccc21` [Morpholine-4-carboxylic acid [3-(2,4-difluorophenylamino)-1-oxo-6,11-dihydrodibenzo[b,e]oxepin-8-yl]amide], for which the melting point was determined as 244.3 °C. For the same compound, the “p38 MAP kinase” value at p38 MAP kinase is recorded as 0.51.

Values taken from US8633312B2, “Dibenzocycloheptatone derivatives and pharmaceutical agents containing said compounds” (c-a-i-r biosciences GmbH, priority 2008, dated 2014).
